From US10463592B2, “Peptide with anti-aging effect and use thereof” (Osaka University, priority 2013, dated 2019)
Where no end group is shown, it is not given here.

Columns and labels:
[1] = system: CD54 expression in THP-1; assay: h-CLAT assay, CD54 expression; format: cell-based, human; settings: positive if RFI of CD54>200; FIG. 3
Method: (§1) Into a 75-cm^2 flask was placed 50 mL of a suspension of the human monocytic cell line THP-1 (JCRB accession number: JCRB0112) at a density of 2.0×10^5 cells/mL in RPMI 1640 culture medium containing 10% FBS and 0.05 mM mercaptoethanol. The cells were precultured for 48 hours. The precultured THP-1 cells were harvested by centrifugation and suspended at 2.0×10^6 cells/mL in RPMI 1640 culture medium containing 10% FBS and 0.05 mM mercaptoethanol. To each well of 24-well plates, 500 μL of the cell suspension was seeded. To each well containing the seeded cell suspension, 500 μL of each peptide in the same culture medium was added. […] Then, 1×10^4 living cells were analyzed by flow cytometry to determine the expression levels of the cell surface antigens. […] The relative fluorescence intensities (RFIs) were calculated from the mean of the measured fluorescence intensities (MFIs) in accordance with the following equation.
(§2) From the survival rates and the RFI values of CD86 and CD54 expressions, the sensitization potentials were evaluated. The sensitization potentials of the test samples were determined to be positive when the RFIs of the antigen expressions in the sample treatment groups satisfy the following equations: the RFI of CD86>150, and the RFI of CD54>200. […]

[2] = system: CD86 expression in THP-1; assay: h-CLAT assay, CD86 expression; format: cell-based, human; settings: positive if RFI of CD86>150, FIG. 2
Method: Into a 75-cm^2 flask was placed 50 mL of a suspension of the human monocytic cell line THP-1 (JCRB accession number: JCRB0112) at a density of 2.0×10^5 cells/mL in RPMI 1640 culture medium containing 10% FBS and 0.05 mM mercaptoethanol. The cells were precultured for 48 hours. The precultured THP-1 cells were harvested by centrifugation and suspended at 2.0×10^6 cells/mL in RPMI 1640 culture medium containing 10% FBS and 0.05 mM mercaptoethanol. To each well of 24-well plates, 500 μL of the cell suspension was seeded. To each well containing the seeded cell suspension, 500 μL of each peptide in the same culture medium was added. After 24 hours of incubation, the cells were harvested by centrifugation and were washed twice with PBS containing 0.1% BSA (FACS buffer). The cells were then suspended in 600 μL of FACS buffer containing a 0.01% human γ-globulin solution (Sigma, G2388) and incubated at 4° C. for 10 minutes to block the Fc receptor. The cell suspension was then split into three 180-μL aliquots for conducting an antibody reaction. The aliquots were each transferred to a 1.5-mL tube and centrifuged to give a pellet. To each pellet was added 50 μL of each of solutions of three different FITC-conjugated antibodies, i.e., FITC-conjugated CD86 antibody (Pharmingen; Cat #555657), FITC-conjugated CD54 antibody (Dako; Cat #F7143) and FITC-conjugated isotype control (Mouse IgG) antibody (Dako; Cat #X0927), that were adjusted to an appropriate concentration with FACS buffer. The mixture was incubated at 4° C. for 30 minutes. After the incubation, the cells were harvested by centrifugation and washed twice with FACS buffer. The cells were harvested by centrifugation and suspended in 200 μL of FACS buffer containing 0.625 μg/mL propidium iodide. Then, 1×10^4 living cells were analyzed by flow cytometry to determine the expression levels of the cell surface antigens. No gating on forward or side scatter was used. The relative fluorescence intensities (RFIs) were calculated from the mean of the measured fluorescence intensities (MFIs) in accordance with the following equation.
From the survival rates and the RFI values of CD86 and CD54 expressions, the sensitization potentials were evaluated. The sensitization potentials of the test samples were determined to be positive when the RFIs of the antigen expressions in the sample treatment groups satisfy the following equations: the RFI of CD86>150, and the RFI of CD54>200. (2) Results

[3] = system: human monocytic cell line THP-1; assay: Sensitization test by the h-CLAT assay (overall evaluation); format: cell-based; settings: even at high concentrations; positive if RFI of CD86>150 and RFI of CD54>200; 24 hours
Method: as §1, §2

Row | Molecule | sensitization potential for CD54 expression [1] | sensitization potential for CD86 expression ([2]; at high concentrations) | sensitization potential for CD86 expression ([2]; at low concentrations) | sensitization potential [3]
1 | GIGKFLHSAKKFGKAFVGEIMNS [magainin] | negative | positive | negative | –
2 | Ac-HRLKR-NH2 [OSK-9, HRLKR] | – | – | – | negative
3 | CC[C@H](C)[C@H](NC(=O)[C@H](CCCCN)NC(=O)[C@H](CCC(=O)O)NC(=O)[C@H](CCCCN)NC(=O)[C@H](CO)NC(=O)[C@H](CCCCN)NC(=O)[C@H](CCCNC(=N)N)NC(=O)[C@H](Cc1ccccc1)NC(=O)[C@H](Cc1ccccc1)NC(=O)[C@H](CC(=O)O)NC(=O)CNC(=O)[C@H](CC(C)C)NC(=O)[C@@H](N)CC(C)C)C(=O)NCC(=O)N[C@@H](CCCCN)C(=O)N[C@@H](CCC(=O)O)C(=O)N[C@@H](Cc1ccccc1)C(=O)N[C@@H](CCCCN)C(=O)N[C@@H](CCCNC(=N)N)C(=O)N[C@H](C(=O)N[C@H](C(=O)N[C@@H](CCC(N)=O)C(=O)N[C@@H](CCCNC(=N)N)C(=O)N[C@H](C(=O)N[C@@H](CCCCN)C(=O)N[C@@H](CC(=O)O)C(=O)N[C@@H](Cc1ccccc1)C(=O)N[C@@H](CC(C)C)C(=O)N[C@@H](CCCNC(=N)N)C(=O)N[C@@H](CC(N)=O)C(=O)N[C@@H](CC(C)C)C(=O)N[C@H](C(=O)N1CCC[C@H]1C(=O)N[C@@H](CCCNC(=N)N)C(=O)N[C@H](C(=O)N[C@@H](CCC(=O)O)C(=O)N[C@@H](CO)C(=O)O)[C@@H](C)O)C(C)C)[C@@H](C)CC)C(C)C)[C@@H](C)CC [LL-37] | negative | positive | negative | –
4 | Ac-IFLHR-NH2 [OSK-6, IFLHR] | – | – | – | negative
